Experimental data published in patent publication US7714017B2, “Carboxylic acid peri-substituted bicyclics for occlusive artery disease” (Decode Genetics, EHF, priority 2004, dated 2010).

The compounds below were run against T1, prostanoid EP3 receptors (Homo sapiens, UniProt P43115) (assay: binding on prostanoid EP3 receptors (method of Abramovitz et al.)). Details: Chart 1, read-out: Activity (EP3 receptor binding IC50 class).
T1 sequence (P43115 1-390): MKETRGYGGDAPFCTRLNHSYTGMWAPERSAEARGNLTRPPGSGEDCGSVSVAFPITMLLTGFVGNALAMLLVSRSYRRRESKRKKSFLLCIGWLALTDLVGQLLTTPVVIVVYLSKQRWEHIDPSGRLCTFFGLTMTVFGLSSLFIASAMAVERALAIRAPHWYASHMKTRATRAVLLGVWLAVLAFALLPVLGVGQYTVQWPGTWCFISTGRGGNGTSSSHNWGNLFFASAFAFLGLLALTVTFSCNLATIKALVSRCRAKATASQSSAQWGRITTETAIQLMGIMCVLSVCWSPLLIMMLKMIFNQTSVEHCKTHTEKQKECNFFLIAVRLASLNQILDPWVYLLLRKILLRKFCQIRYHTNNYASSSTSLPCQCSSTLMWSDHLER
Protocol: (§1) The compounds of the invention were assayed for their binding on prostanoid EP3 receptors according to the method of Abramovitz et al. [Bioch. Biophys. Acta, 1473, 285-293 (2000)]. […] Compounds with IC50<1 μM are shown as +++; compounds with IC50 1-10 μM are shown as ++; and compounds with IC50>10 μM are shown as +.
as §1, with “Acta.” for “Acta,”

Row | IC50 | Compound
1 | < 1 µM | Cn1cc(/C=C/C(=O)O)c2c(Oc3ccc(Cl)c(F)c3)cccc21 [Compound A43, (E)-3-[4-(4-Chloro-3-fluoro-phenoxy)-1-methyl-1H-indol-3-yl]-acrylic acid]
2 | < 1 µM | Cn1cc(/C=C/C(=O)O)c2c(Oc3ccc4ccccc4c3)cccc21 [Compound A44, (E)-3-[1-Methyl-4-(naphthalen-2-yloxy)-1H-indol-3-yl]-acrylic acid]
3 | < 1 µM | Cn1cc(/C=C/C(=O)O)c2c(Oc3ccc(Cl)cc3F)cccc21 [Compound A45, (E)-3-[4-(4-Chloro-2-fluoro-phenoxy)-1-methyl-1H-indol-3-yl]-acrylic acid]
4 | 1 to 10 µM | Cn1cc(/C=C/C(=O)O)c2c(Oc3ccc(F)cc3Cl)cccc21 [Compound A46, (E)-3-[4-(2-Chloro-4-fluoro-phenoxy)-1-methyl-1H-indol-3-yl]-acrylic acid]
5 | < 1 µM | CCOC(=O)C12CCCC(/C=C/C(=O)O)=C1N(Cc1ccc(Cl)cc1Cl)C(=O)C2 (centres unmarked) [Compound A47, 7-((E)-2-Carboxy-vinyl)-1-(2,4-dichloro-benzyl)-2-oxo-1,2,3,4,5,6-hexahydro-indole-3a-carboxylic acid ethyl ester]
6 | 1 to 10 µM | CC12CCCC(CCC(=O)O)C1N(Cc1ccc(F)c(F)c1)C(=O)C2 (centres unmarked) [Compound A49, 3-[1-(3,4-Difluoro-benzyl)-3a-methyl-2-oxo-octahydro-indol-7-yl]-propionic acid]
7 | 1 to 10 µM | CC12CCCC(CCC(=O)O)=C1N(Cc1ccc(F)c(F)c1)C(=O)C2 (centres unmarked) [Compound A50, 3-[1-(3,4-Difluoro-benzyl)-3a-methyl-2-oxo-2,3,3a,4,5,6-hexahydro-1H-indol-7-yl]-propionic acid]
8 | > 10 µM | O=C(O)C(=O)Nc1cccc2c1N(Cc1ccc3ccccc3c1)C(=O)CO2 [Compound A51, N-(4-Naphthalen-2-ylmethyl-3-oxo-3,4-dihydro-2H-benzo[1,4]oxazin-5-yl)-oxalamic acid]
9 | < 1 µM | O=C(O)/C=C/c1cccc2ccn(Cc3ccc4ccccc4c3)c12 [Compound A53, (E)-3-(1-Naphthalen-2-ylmethyl-1H-indol-7-yl)-acrylic acid]
10 | 1 to 10 µM | CN(C)Cc1cn(Cc2ccc3ccccc3c2)c2c(/C=C/C(=O)O)cccc12 [Compound A55]
11 | < 1 µM | O=C(O)/C=C/c1cccc2c1N(Cc1ccc3ccccc3c1)C(=O)C2=O [Compound A56, (E)-3-(1-Naphthalen-2-ylmethyl-2,3-dioxo-2,3-dihydro-1H-indol-7-yl)-acrylic acid]
12 | 1 to 10 µM | Cc1cn(Cc2cn3ccccc3n2)c2c(/C=C/C(=O)O)cc(F)cc12 [Compound A57, (E)-3-(5-Fluoro-1-imidazo[1,2-a]pyridin-2-ylmethyl-3-methyl-1H-indol-7-yl)-acrylic acid]
13 | < 1 µM | O=C(O)CCc1cccc2ccn(Cc3ccc4ccccc4c3)c12 [Compound A58, 3-(1-Naphthalen-2-ylmethyl-1H-indol-7-yl)-propionic acid]
14 | 1 to 10 µM | O=C(O)/C=C/c1cccc2c1N(Cc1ccc(F)c(F)c1)C(=O)C2=O [Compound A60, (E)-3-[1-(3,4-Difluoro-benzyl)-2,3-dioxo-2,3-dihydro-1H-indol-7-yl]-acrylic acid]
15 | < 1 µM | O=C(O)/C=C/c1cccc2c1N(Cc1ccc(Cl)cc1Cl)C(=O)C2(CO)CO [Compound A62, (E)-3-[1-(2,4-Dichloro-benzyl)-3,3-bis-hydroxymethyl-2-oxo-2,3-dihydro-1H-indol-7-yl]-acrylic acid]
16 | 1 to 10 µM | Cc1cc2c(=O)n(C)c(=O)n(CCC(=O)O)c2n1Cc1ccc(Cl)cc1Cl [Compound A63, 3-[7-(2,4-Dichloro-benzyl)-3,6-dimethyl-2,4-dioxo-2,3,4,7-tetrahydro-pyrrolo[2,3-d]pyrimidin-1-yl]-propionic acid]
17 | 1 to 10 µM | Cc1cn(Cc2ccc(Cl)cc2Cl)c2c(/C=C/C(O)(C(F)(F)F)C(F)(F)F)cc(F)cc12 [Compound A64, (E)-4-[1-(2,4-Dichloro-benzyl)-5-fluoro-3-methyl-1H-indol-7-yl]-1,1,1-trifluoro-2-trifluoromethyl-but-3-en-2-ol]
